The record followed here is US11026989B2, “Composition for treating erectile dysfunction by Orchis anatolica extract” (Jordan University of Science and Technology, priority 2016, dated 2021).

This experiment has as its system penile tissue (corpus cavernosum strips). The experiment is described as follows: In vitro relaxation of penile tissue strips in physiological organ bath after induced contraction. More on the design: species or system New Zealand rabbit and albino rats. An excerpt: A water-jacketed physiological organ bath provides a stable and adjustable way of organ stability and temperature control. Substrates and other nutrients that are required to sustain tissue function were provided via a physiological solution (e.g., Krebs solution). This will allowed the study of evoked tissue responses to pharmacological agents and/or electrical stimulation.
Penile tissues from a mature New Zealand rabbit (e.g., 3-3.5 kg) and albino rats (e.g., 300-350 g) were dissected out and cleaned of the outer adherent connective tissue, and the two corpora cavernosa integral tissues were obtained. Each corpus cavernosum was cut lengthwise into 4 pieces measuring about 2 mm thick and 10-12 mm long out of which a 7-8 mm long piece was taken from the middle part of each strip by removing the two unwanted edges of these strips. The strips were kept in a well oxygenated Krebs solution, pre-cooled to 4° C., and placed in a refrigerator until the initiation of the experiment.
Each erectile tissue (“ET”) was mounted by clipping both of its ends within the bath. An ET strip was hooked to one clip end, which was tied to a metal wire (e.g., mounting hook), which was fixed to a bottom of a water-jacketed chamber. The top end of the strip was clipped to a cotton thread and connected to a lever (e.g., arm), which was connected to a Harvard isotonic transducer. The former was connected to a Harvard Universal Oscillograph for recording the force of contraction to an isotonic transducer. The tissue strip was stretched against a fixed caliber weight of 2 gm attached to the lever of the isotonic transducer. The free movable lever end was horizontally adjusted receptive to any movement according to the contraction and relaxation of the ET within the path when stimulated. Before each experiment, the transducer was calibrated two times against this caliber weight. The bath into which the tissue was mounted contained 25 ml of oxygenated Krebs solution with continuous oxygenation (gas mixture of 95% O2 and 5% CO2 and at 37° C.) and left for 60 minutes before starting the experiment.
Certain specifications for collection of Orchis anatolica plants were adopted so that the intact roots together with the potato-shaped bulb parts were collected and preserved intact. Bulbs were detached from roots and left to dry at air temperature, and then separated into two categories: a large rounded sized bulb resembling the small sized potato (male bulb) and an elongated small sized bulb (female or feeding bulb). The round potato shaped bulb was chopped and grinded using an electrical grinder until a powder was obtained. Each 500 g of dried and grinded orchis roots was then refluxed in (2 L) 70% ethanol at 50° C. for 36 hours in a continuous extraction (soxhlet) apparatus. Ethanol extract was filtered and concentrated under reduced pressure at 50° C. using a rotary evaporator. Red Korean Panax Ginseng was obtained from a South Korea market as a concentrated powder vacuumed and sealed in metal container packages of 50 g (commercially obtained from KOREAEXPORT CO LTD). Powder was dissolved well in distilled water from which different concentrations were used. Different doses of both Orchis anatolica extract and Red Korean Panax Ginseng were used to obtain and determine the maximum effect of ET response.
A 1 liter Krebs stock solution was prepared the day before the experiment containing the following chemicals: NaCl (125 mM), NaHCO3 (20 mM), KCl (4 mM), NaH2PO4 (1.8 mM), MgSO4 (1.8 mM), CaCl2 (1.8 mM), glucose (10 mM), and HEPES buffer (10 mM) (see Table 1). For a final 1 liter Krebs solution, 725 ml ringer and […] Deionized water were added. The solution pH was set to 7.4 after gassing with 95% O2/5% CO2 for 30 minutes before it was used. Krebs solutions were freshly prepared on each experimental day from the stock solutions stored in the refrigerator. […]

For `CCCc1nn(C)c2c(=O)[nH]c(-c3cc(S(=O)(=O)N4CCN(C)CC4)ccc3OCC)nc12` [Sildenafil], the “Time dependent penile tissue contraction (−) and relaxation (+) response to treatment” value (shortened to “Time dependent penile tissue contraction”) (5 minutes, 0.002 g/50 ml Krebs, after phenylephrine contraction) was 11%; the “Time dependent penile tissue contraction” value (15 minutes, 0.002 g/50 ml Krebs, after phenylephrine contraction) is recorded as 12%; the “Time dependent penile tissue contraction” value (25 minutes, 0.002 g/50 ml Krebs, after phenylephrine contraction) was found to be 24%.

Regarding `CNC[C@H](O)c1cccc(O)c1` [L-Phenylephrine], the “Time dependent penile tissue contraction” value is, setting by setting: (5 minutes, 0.0509 gm stock solution) −6.8%^; (10 minutes, 0.0509 gm stock solution) −8.2%^; (15 minutes, 0.0509 gm stock solution) −9.5%^; (20 minutes, 0.0509 gm stock solution) −10%; (25 minutes, 0.0509 gm stock solution) −10%.
